Assay results from patent publication US20130302442A1, “METHODS OF USING (4S,4AS,5AR,12AS)-4-DIMETHYLAMINO-3,10,12,12A-TETRAHYDROXY-7-[(METHOXY(METHYL)AMINO)-METHYL]-1,11-DIOXO-1,4,4A,5,5A,6,11,12A-OCTAHYDRO-NAPHTHACENE-2-CARBOXYLIC ACID AMIDE” (priority 2012, published 2013).
Values after ≈ are worked out from the molar mass of the structure shown. Where two headings read alike, the source gives them in different places.

What was measured:
[1] = tested on: Eikenella corrodens; assay: In vitro MIC testing against anaerobic bacteria; type: cell-based; details: ATCC43278; Eikenella corrodens 1206, ATCC 43278; read-out: MIC
[2] = tested on: S. pyogenes; assay: In vitro MIC testing, antibacterial spectrum of activity; type: cell-based
[3] = tested on: S. agalactiae; assay: as above; type: cell-based
[4] = tested on: Veillonella parvula; assay: In vitro MIC testing against anaerobic bacteria; type: cell-based; details: ATCC17745; Veillonella parvula 1272, ATCC 17745
[5] = tested on: Fusobacterium necrophorum; assay: In vitro MIC testing against anaerobic bacteria; type: cell-based; details: Fusobacterium necrophorum, ATCC25286
[6] = tested on: S. epidermidis; assay: In vitro MIC testing, antibacterial spectrum of activity; type: cell-based, Staphylococcus epidermidis; details: for MIC50 / MIC90: Staphylococcus epidermidis; for MIC50: read-out: MIC50; for MIC90: read-out: MIC90
[7] = tested on: Bifidobacterium bifidum; assay: In vitro MIC testing against anaerobic bacteria; type: cell-based; details: ATCC15696; Bifidobacterium bifidum 3965, ATCC 15696
[8] = tested on: Bacteroides vulgatus; assay: In vitro MIC testing against anaerobic bacteria; type: cell-based
[9] = tested on: E. coli; assay: In vitro MIC testing, antibacterial spectrum of activity; type: cell-based; details: Escherichia coli
[10] = tested on: P. mirabilis; assay: as above; type: cell-based; details: P. mirabilis (30 isolates)
[11] = tested on: Lactobacillus acidophilus; assay: In vitro MIC testing against anaerobic bacteria; type: cell-based; details: Lactobacillus acidophilus 0681
[12] = tested on: Streptococcus spp. [Group C]; assay: In vitro MIC testing, antibacterial spectrum of activity; type: cell-based; details: Streptococcus spp. [Group C] (30 isolates)
[13] = tested on: Bifidobacterium infantis; assay: In vitro MIC testing against anaerobic bacteria; type: cell-based; details: ATCC15702; Bifidobacterium infantis 3966, ATCC 15702
[14] = tested on: S. haemolyticus; assay: In vitro MIC testing, antibacterial spectrum of activity; type: cell-based; details: S. haemolyticus (33 isolates)
[15] = tested on: Lactobacillus casei; assay: In vitro MIC testing against anaerobic bacteria; type: cell-based; details: Lacticaseibacillus casei, ATCC393; Lactobacillus casei 1722, ATCC 393
[16] = tested on: E. faecium; assay: In vitro MIC testing, antibacterial spectrum of activity; type: cell-based; details: for MIC / MIC50 / MIC90: Enterococcus faecium; for MIC50: read-out: MIC50; for MIC90: read-out: MIC90
[17] = tested on: Porphyromonas asaccharolytica; assay: In vitro MIC testing against anaerobic bacteria; type: cell-based
[18] = tested on: P. avidum; assay: In vitro MIC testing, antibacterial spectrum of activity; type: cell-based; details: P. avidum [clinical isolates] (4 isolates)
[19] = tested on: Clostridium perfringens; assay: microbe, parasite or virus in culture; type: cell-based
[20] = tested on: S. pneumoniae; assay: In vitro MIC testing, antibacterial spectrum of activity; type: cell-based, Streptococcus pneumoniae
[21] = tested on: Bacteroides ovatus; assay: In vitro MIC testing against anaerobic bacteria; type: cell-based
[22] = tested on: Propionibacterium acnes; assay: In vitro MIC testing against anaerobic bacteria; type: cell-based; details: Cutibacterium acnes
[23] = tested on: Bifidobacterium brevi; assay: In vitro MIC testing against anaerobic bacteria; type: cell-based; details: ATCC15698; Bifidobacterium brevi 3967, ATCC 15698
[24] = tested on: Bacteroides thetaiotaomicron; assay: In vitro MIC testing against anaerobic bacteria; type: cell-based
[25] = tested on: Lactobacillus plantarum; assay: In vitro MIC testing against anaerobic bacteria; type: cell-based; details: Lactiplantibacillus plantarum, ATCC39268; Lactobacillus plantarum 2791, ATCC 39268
[26] = tested on: P. aeruginosa; assay: In vitro MIC testing, antibacterial spectrum of activity; type: cell-based; details: Pseudomonas aeruginosa; P. aeruginosa (11 isolates)
[27] = tested on: Prevotella spp.; assay: In vitro MIC testing against anaerobic bacteria; type: cell-based
[28] = tested on: Fusobacterium nucleatum; assay: In vitro MIC testing against anaerobic bacteria; type: cell-based; details: Fusobacterium nucleatum, ATCC25586
[29] = tested on: Streptococcus intermedius; assay: In vitro MIC testing against anaerobic bacteria; type: cell-based; details: ATCC27335; Streptococcus intermedius 1203, ATCC 27335
[30] = tested on: P. granulosum; assay: In vitro MIC testing, antibacterial spectrum of activity; type: cell-based; details: P. granulosum [clinical isolates] (3 isolates)
[31] = tested on: K. pneumoniae; assay: as above; type: cell-based
[32] = S. epidermidis [MRSE] (32 isolates)
[33] = S. epidermidis [MSSE] (31 isolates)
[34] = Klebsiella pneumoniae, K. pneumoniae (31 isolates)

## CON(C)Cc1ccc(O)c2c1C[C@H]1C[C@H]3[C@H](N(C)C)C(O)=C(C(N)=O)C(=O)[C@@]3(O)C(O)=C1C2=O [The Active, (4S,4aS,5aR,12aS)-4-dimethylamino-3,10,12,12a-tetrahydroxy-7-[(methoxy(methyl)amino)-methyl]-1,11-dioxo-1,4,4a,5,5a,6,11,12a-octahydro-naphthacene-2-carboxylic acid amide]
[1]
  MIC: 1 µg/mL (≈ 2.05 µM)
[2]; S. pyogenes (32 isolates)
  MIC Range: 0.12 to 16 µg/mL
[2]; S. pyogenes [tetR] (5 isolates)
  MIC Range: 4 to 16 µg/mL
[2]; S. pyogenes [tetS] (5 isolates)
  MIC Range: ≦0.06-0.25 μg/mL
[2]; Streptococcus pyogenes, S. pyogenes strain PBS # 330, tetO
  MIC: 16 µg/mL (≈ 32.8 µM)
[2]; Streptococcus pyogenes, S. pyogenes strain PBS # 792, tetM
  MIC: 4 µg/mL (≈ 8.2 µM)
[2]; Streptococcus pyogenes, S. pyogenes (32 isolates), read-out: MIC50
  MIC50: 0.12 µg/mL (≈ 0.246 µM)
[2]; Streptococcus pyogenes, S. pyogenes (32 isolates), read-out: MIC90
  MIC90: 8 µg/mL (≈ 16.4 µM)
[3]; S. agalactiae (31 isolates)
  MIC Range: 0.12 to 32 µg/mL
[3]; S. agalactiae [tetR] (7 isolates)
  MIC Range: 16 to 32 µg/mL
[3]; S. agalactiae [tetS] (3 isolates)
  MIC Range: 0.125 to 0.25 µg/mL
[3]; Streptococcus agalactiae, S. agalactiae strain PBS # 316, tetO
  MIC: 32 µg/mL (≈ 65.6 µM)
[3]; Streptococcus agalactiae, S. agalactiae strain PBS # 897, tetM
  MIC: 16 µg/mL (≈ 32.8 µM)
[3]; Streptococcus agalactiae, S. agalactiae (31 isolates), read-out: MIC90
  MIC90: 16 µg/mL (≈ 32.8 µM)
[4]
  MIC: 4 µg/mL (≈ 8.2 µM)
[5]
  MIC: 0.25 µg/mL (≈ 0.513 µM)
[6]; [32]
  MIC Range: 0.25 to 2 µg/mL
  MIC50: 0.5 µg/mL (≈ 1.03 µM)
  MIC90: 2 µg/mL (≈ 4.1 µM)
[6]; [33]
  MIC Range: 0.12 to 2 µg/mL
  MIC50: 0.25 µg/mL (≈ 0.513 µM)
  MIC90: 2 µg/mL (≈ 4.1 µM)
[7]
  MIC: 1 µg/mL (≈ 2.05 µM)
[8]; Bacteroides vulgatus 3494
  MIC: 16 µg/mL (≈ 32.8 µM)
[8]; Phocaeicola vulgatus
  MIC: 16 µg/mL (≈ 32.8 µM)
[9]
  MIC: > 64 µg/mL
  MIC90: > 64 µg/mL
[10]
  MIC Range: >64 µg/mL
[10]; Proteus mirabilis
  MIC50: > 64 µg/mL
  MIC90: > 64 µg/mL
[11]
  MIC: 4 µg/mL (≈ 8.2 µM)
[12]
  MIC Range: 0.12 to 16 µg/mL
[12]; read-out: MIC50
  MIC50: 0.25 µg/mL (≈ 0.513 µM)
[12]; read-out: MIC90
  MIC90: 16 µg/mL (≈ 32.8 µM)
[13]
  MIC: 0.5 µg/mL (≈ 1.03 µM)
[14]
  MIC Range: 0.12 to 2 µg/mL
[14]; Staphylococcus haemolyticus, read-out: MIC50
  MIC50: 0.12 µg/mL (≈ 0.246 µM)
[14]; Staphylococcus haemolyticus, read-out: MIC90
  MIC90: 2 µg/mL (≈ 4.1 µM)
[15]
  MIC: 2 µg/mL (≈ 4.1 µM)
[16]; E. faecium [VRE] (30 isolates)
  MIC Range: 0.12 to 32 µg/mL
  MIC50: 2 µg/mL (≈ 4.1 µM)
  MIC90: 32 µg/mL (≈ 65.6 µM)
[16]; E. faecium [VSE] (32 isolates)
  MIC Range: 0.12 to 32 µg/mL
  MIC50: 0.5 µg/mL (≈ 1.03 µM)
  MIC90: 32 µg/mL (≈ 65.6 µM)
[16]; E. faecium [tetR] (6 isolates)
  MIC Range: 8 to 32 µg/mL
[16]; E. faecium strain PBS # 965, tetM
  MIC: 8 µg/mL (≈ 16.4 µM)
[16]; E. faecium strain PBS # 1323, tetK
  MIC: 8 µg/mL (≈ 16.4 µM)
[16]; E. faecium strain PBS # 1324, tetO
  MIC: 16 µg/mL (≈ 32.8 µM)
[17]
  MIC: 16 µg/mL (≈ 32.8 µM)
[17]; Porphyromonas asaccharolytica 3557, read-out: MIC
  MIC: 8 µg/mL (≈ 16.4 µM)
[18]
  MIC Range: 1 to 4 µg/mL
[19]
  MIC: 16 µg/mL (≈ 32.8 µM)
[19]; read-out: MIC, high MIC values
  MIC: > 16 µg/mL
[20]; S. pneumoniae [PSSP] (32 isolates)
  MIC Range: ≦0.03-32 μg/mL
[20]; S. pneumoniae [tetR] (5 isolates)
  MIC Range: 4 to 32 µg/mL
[20]; S. pneumoniae [tetS] (5 isolates)
  MIC Range: ≦0.06-0.125 μg/mL
[20]; Streptococcus pneumoniae, S. pneumoniae [PSSP] (32 isolates), read-out: MIC50
  MIC50: 0.12 µg/mL (≈ 0.246 µM)
[20]; Streptococcus pneumoniae, S. pneumoniae [PSSP] (32 isolates), read-out: MIC90
  MIC90: 0.25 µg/mL (≈ 0.513 µM)
[20]; Streptococcus pneumoniae, S. pneumoniae strain PBS # 511, tetM
  MIC: 4 µg/mL (≈ 8.2 µM)
[21]
  MIC: 0.25 µg/mL (≈ 0.513 µM)
[21]; Bacteroides ovatus 3503, read-out: MIC
  MIC: 8 µg/mL (≈ 16.4 µM)
[22]
  MIC: 0.25 µg/mL (≈ 0.513 µM)
[22]; ATCC11829, Propionibacterium acnes 1286, ATCC 11829, read-out: MIC
  MIC: 1 µg/mL (≈ 2.05 µM)
[22]; P. acnes, summary of Table 1, read-out: minimum inhibitory concentration (MIC), relatively potent activity
  MIC: ≤ 4 µg/mL
[23]
  MIC: 1 µg/mL (≈ 2.05 µM)
[24]; Bacteroides thetaiotaomicron 3399
  MIC: 0.25 µg/mL (≈ 0.513 µM)
[24]; Bacteroides thetaiotaomicron 3496
  MIC: 16 µg/mL (≈ 32.8 µM)
[25]
  MIC: 2 µg/mL (≈ 4.1 µM)
[26]
  MIC50: > 64 µg/mL
  MIC90: > 64 µg/mL
[27]; Prevotella spp. 3564
  MIC: 4 µg/mL (≈ 8.2 µM)
[27]; Prevotella spp. 3568
  MIC: 2 µg/mL (≈ 4.1 µM)
[28]
  MIC: 0.25 µg/mL (≈ 0.513 µM)
[29]
  MIC: 1 µg/mL (≈ 2.05 µM)
[30]
  MIC Range: 1-1 μg/mL
[31]; K. pneumoniae [tetS] (7 isolates)
  MIC Range: 16 to 64 µg/mL
[31]; [34]
  MIC50: > 64 µg/mL
  MIC90: > 64 µg/mL
[31]; Klebsiella pneumoniae, K. pneumoniae strain PBS # 266, tetD
  MIC: > 64 µg/mL
